Columns and labels:
Test in all cases: relative viability (nuclei count vs DMSO), 5 days (fraction); higher = more cells survive
A-427 = test system: A-427
Summary of the method: (§1)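 After 5 days of treatment, lung cancer cells in 1536-well plates were fixed and stained in a single step (final 0.05% Triton X-100, 1% formaldehyde, 1 ug/ml Hoechst) and their nuclei counted on 4× images. Treatment had been applied by pin tool the day after seeding as one drug alone or as a fixed anchor-drug dose with five library-drug doses (not always all listed) in √10 steps. Relative viability is the nuclei count of treated wells divided by that of vehicle wells, and values are medians of duplicate plates.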

NCI-H2087 = test system: NCI-H2087
Summary of the method: as §1

NCI-H650 = test system: NCI-H650
Summary of the method: as §1

HCC-78 = test system: HCC-78
Summary of the method: as §1

HCC-44 = test system: HCC-44
Summary of the method: as §1

EPLC-272H = test system: EPLC-272H
Summary of the method: as §1

NCI-H1395 = test system: NCI-H1395
Summary of the method: as §1

LOU-NH91 = test system: LOU-NH91
Summary of the method: as §1

NCI-H1915 = test system: NCI-H1915
Summary of the method: as §1

NCI-H2023 = test system: NCI-H2023
Summary of the method: as §1

NCI-H661 = test system: NCI-H661
Summary of the method: as §1

SMILES: O=c1[nH]c2ccccc2n1C1CCN(CCCC(c2ccc(F)cc2)c2ccc(F)cc2)CC1 [Pimozide] + CC(=O)c1c(C)c2cnc(Nc3ccc(N4CCNCC4)cn3)nc2n(C2CCCC2)c1=O [Palbociclib] (partner 0.5 µM)
- relative viability (A-427; first compound 0.08 µM): 0.531
- relative viability (A-427; first compound 0.253 µM): 0.57
- relative viability (A-427; first compound 0.8 µM): 0.462
- relative viability (A-427; first compound 2.53 µM): 0.457
- relative viability (A-427; first compound 8 µM): 0.497
- relative viability (NCI-H2087; first compound 0.08 µM): 0.197
- relative viability (NCI-H2087; first compound 0.253 µM): 0.233
- relative viability (NCI-H2087; first compound 2.53 µM): 0.274
- relative viability (NCI-H2087; first compound 8 µM): 0.195
- relative viability (NCI-H650; first compound 0.08 µM): 0.396
- relative viability (NCI-H650; first compound 0.253 µM): 0.313
- relative viability (NCI-H650; first compound 0.8 µM): 0.331
- relative viability (NCI-H650; first compound 2.53 µM): 0.313
- relative viability (NCI-H650; first compound 8 µM): 0.291
- relative viability (HCC-78; first compound 0.08 µM): 0.514
- relative viability (HCC-78; first compound 0.8 µM): 0.431
- relative viability (HCC-78; first compound 2.53 µM): 0.421
- relative viability (HCC-78; first compound 8 µM): 0.524
- relative viability (HCC-44; first compound 0.08 µM): 0.975
- relative viability (HCC-44; first compound 0.253 µM): 0.982
- relative viability (HCC-44; first compound 0.8 µM): 0.946
- relative viability (HCC-44; first compound 2.53 µM): 0.925
- relative viability (HCC-44; first compound 8 µM): 0.859
- relative viability (EPLC-272H; first compound 0.08 µM): 0.309
- relative viability (EPLC-272H; first compound 0.253 µM): 0.308
- relative viability (EPLC-272H; first compound 0.8 µM): 0.328
- relative viability (EPLC-272H; first compound 2.53 µM): 0.329
- relative viability (EPLC-272H; first compound 8 µM): 0.333
- relative viability (NCI-H1395; first compound 0.08 µM): 0.579
- relative viability (NCI-H1395; first compound 0.253 µM): 0.655
- relative viability (NCI-H1395; first compound 0.8 µM): 0.538
- relative viability (NCI-H1395; first compound 2.53 µM): 0.623
- relative viability (NCI-H1395; first compound 8 µM): 0.578
- relative viability (LOU-NH91; first compound 0.08 µM): 0.525
- relative viability (LOU-NH91; first compound 0.253 µM): 0.404
- relative viability (LOU-NH91; first compound 0.8 µM): 0.443
- relative viability (LOU-NH91; first compound 2.53 µM): 0.558
- relative viability (LOU-NH91; first compound 8 µM): 0.539
- relative viability (NCI-H1915; first compound 0.08 µM): 0.435
- relative viability (NCI-H1915; first compound 0.253 µM): 0.498
- relative viability (NCI-H1915; first compound 2.53 µM): 0.501
- relative viability (NCI-H1915; first compound 8 µM): 0.477
- relative viability (NCI-H2023; first compound 0.08 µM): 0.337
- relative viability (NCI-H2023; first compound 0.253 µM): 0.39
- relative viability (NCI-H2023; first compound 0.8 µM): 0.341
- relative viability (NCI-H2023; first compound 2.53 µM): 0.333
- relative viability (NCI-H2023; first compound 8 µM): 0.245
- relative viability (NCI-H661; first compound 0.08 µM): 0.4
- relative viability (NCI-H661; first compound 0.253 µM): 0.412
- relative viability (NCI-H661; first compound 0.8 µM): 0.367
- relative viability (NCI-H661; first compound 2.53 µM): 0.395
- relative viability (NCI-H661; first compound 8 µM): 0.327

Source: the supplement of paper PMC10307832
